Data as given in PubChem BioAssay AID1417 (Emory University Molecular Libraries Screening Center, 2008).

Molecular target: Induced myeloid leukemia cell differentiation protein Mcl-1 (Homo sapiens) (UniProt Q07820)
Experiment: Mcl-1 Noxa peptide disruption concentration-response – biochemical, TR-FRET, dose response (AID 1417)
Conditions: Mcl-1/Noxa peptide interaction, cell-free TR-FRET (terbium/rhodamine), 2 h; measured here: absolute IC50

Sequence of Induced myeloid leukemia cell differentiation protein Mcl-1 (Homo sapiens) (Q07820 whole entry, looked up): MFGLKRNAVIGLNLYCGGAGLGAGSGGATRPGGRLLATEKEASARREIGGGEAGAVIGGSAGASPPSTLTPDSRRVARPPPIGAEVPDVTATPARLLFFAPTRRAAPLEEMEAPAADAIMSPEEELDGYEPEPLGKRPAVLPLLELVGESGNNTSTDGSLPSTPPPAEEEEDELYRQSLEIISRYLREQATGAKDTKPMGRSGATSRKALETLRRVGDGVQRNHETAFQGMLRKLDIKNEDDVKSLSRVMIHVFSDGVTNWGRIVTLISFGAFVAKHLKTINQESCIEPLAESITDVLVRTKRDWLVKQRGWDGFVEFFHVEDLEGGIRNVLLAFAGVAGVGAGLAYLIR

Question: For `COc1ccc(/C=C/C(=O)NC(=S)Nc2cc([N+](=O)[O-])ccc2O)cc1OC`, which IC50 is on record?
Answer: 1.12 µM

Question: `Cc1nnc(NC(=O)COc2ccc3c(C)cc(=O)oc3c2)s1` was tested. Which IC50 did it give?
Answer: 5.88 µM

Question: With `Cc1cc(C)c(S(=O)(=O)/N=C2/C=C(SCC(=O)O)C(=O)c3ccccc32)cc1C` as the molecule, how does the IC50 read?
Answer: < 0.4 µM

Question: Which IC50 does the source give for `CCOc1ccc(C(=O)Nc2cc(NC(=O)c3ccc(OCC)c(Cl)c3)cc(C(=O)O)c2)cc1Cl` here?
Answer: 16.5 µM

Question: `CCSc1ncc(/C=N/Nc2ccc([N+](=O)[O-])cc2)n1C` was tested. Which IC50 did it give?
Answer: 2.12 µM

Question: With `O=c1c(Cl)c(N/N=C/c2ccc(Cl)cc2)cnn1-c1ccccc1` as the molecule, how does the IC50 read?
Answer: 4.42 µM

Question: With `CCS(=O)(=O)C1=NN2C(=N)/C(=C\c3ccc(SCc4ccco4)o3)C(=O)N=C2S1` as the molecule, how does the IC50 read?
Answer: 1.46 µM

Question: With `N#CC1=C(N)N(c2ccc(F)cc2)C2=C(C1c1ccc(O)cc1)S(=O)(=O)CC2` (configuration not stated) as the molecule, how does the IC50 read?
Answer: 3.4 µM

Question: With `Oc1ccc(Br)cc1-c1cc(-c2ccc(Cl)cc2)n[nH]1` as the molecule, how does the IC50 read?
Answer: 1.68 µM

Question: How did the IC50 turn out when `CCc1cc(C(=O)N=Nc2c(O)[nH]c3ccc([N+](=O)[O-])cc23)c2ccccc2n1` was run?
Answer: 5.99 µM

Question: With `CC(C)(C)C1=CC=C(C(C)(C)C)C(=O)C1=O` as the molecule, how does the IC50 read?
Answer: < 0.4 µM

Question: With `COc1ccc(N2CCC(CNC(=O)Nc3ccc(C)c(C)c3)C2)cc1` (configuration not stated) as the molecule, how does the IC50 read?
Answer: > 54 µM

Question: Which IC50 does the source give for `O=[N+]([O-])c1cccc(N/N=C/c2cc([N+](=O)[O-])ccc2O)c1` here?
Answer: 0.428 µM

Question: Which IC50 does the source give for `O=C(Nc1ccc(Cl)cc1)N1CCc2[nH]c3ccccc3c2C1` here?
Answer: > 54 µM

Question: With `O=c1c2c3c(sc2[nH]c(=S)n1Cc1ccco1)CCC3` as the molecule, how does the IC50 read?
Answer: 1.42 µM

Question: `COc1ccccc1N1C(=O)C(Cl)=C(Nc2ccccc2O)C1=O` was tested. Which IC50 did it give?
Answer: > 54 µM

Question: With `O=[N+]([O-])c1ccc(O)c(/C=N/Nc2ccc(Cl)nn2)c1` as the molecule, how does the IC50 read?
Answer: 16.7 µM

Question: For `Cc1nc(NC(=O)c2ccccc2)sc1-c1csc(Nc2ccc(C(=O)O)cc2)n1`, which IC50 is on record?
Answer: 3.6 µM

Question: With `COCCNC(=O)Nc1ccc2nc(-c3ccco3)c(-c3ccco3)nc2c1` as the molecule, how does the IC50 read?
Answer: < 0.4 µM

Question: How did the IC50 turn out when `CC(=O)Nc1ccc(-c2csc(NC(=O)C3CC(=O)N(c4ccc5c(c4)OCCO5)C3)n2)cc1` (configuration not stated) was run?
Answer: 3.25 µM

Question: With `O=C1/C(=C\c2ccccn2)SC(=S)N1c1ccc(S(=O)(=O)Nc2nccs2)cc1` as the molecule, how does the IC50 read?
Answer: 2.69 µM

Question: With `Cc1ccccc1/C=N/Nc1ccnc2cc(Cl)ccc12` as the molecule, how does the IC50 read?
Answer: 6.6 µM

Question: With `O=C(O)c1cccc(N/N=C/C2=C(Cl)c3cc(Cl)ccc3SC2)c1` as the molecule, how does the IC50 read?
Answer: 4.33 µM

Question: For `CCOC1=C/C(=C/c2c(N)n3nc(-c4ccccc4)sc3nc2=O)C=CC1=O`, which IC50 is on record?
Answer: 2.43 µM

Question: `CCN(CC)C(=O)CC(c1cc(OC)c(OC)c(OC)c1)c1c(OC)cc(OC)c2c(-c3ccccc3)cc(=O)oc12` (configuration not stated) was tested. Which IC50 did it give?
Answer: 4.05 µM

Question: How did the IC50 turn out when `COc1cccc2c(C)c(C(=O)O)[nH]c12` was run?
Answer: 2 µM

Question: `Cc1ccc(S(=O)(=O)Nc2ccc(N(C)C)cc2)cc1` was tested. Which IC50 did it give?
Answer: > 54 µM

Question: Which IC50 does the source give for `O=C1NC(=S)N(c2ccc(F)cc2)C(=O)/C1=C\c1ccoc1` here?
Answer: < 0.4 µM

Question: How did the IC50 turn out when `Nc1nc(N)c2cc(Sc3ccc4ccccc4c3)ccc2n1` was run?
Answer: 4.06 µM

Question: `CCn1nc(C)c(/C=N/NC(=O)Cc2ccc(Cl)cc2)c1C` was tested. Which IC50 did it give?
Answer: > 54 µM

Question: For `COc1ccc2nc(S(=O)Cc3ncc(C)c(OC)c3C)[nH]c2c1` (configuration not stated), which IC50 is on record?
Answer: < 0.4 µM

Question: Which IC50 does the source give for `CCC(C)NCCCOc1c(C)cc(C)cc1Br` (configuration not stated) here?
Answer: > 54 µM

Question: With `O=C(O)c1cccc(-n2cccc2/C=C2/NC(=O)N(c3ccc(Cl)cc3)C2=O)c1` as the molecule, how does the IC50 read?
Answer: < 0.4 µM

Question: Which IC50 does the source give for `COC(=O)c1ccc(CSc2nc(-c3ccccc3)cs2)o1` here?
Answer: > 54 µM

Question: For `CCOC(=O)c1cc(-c2ccco2)nc2c1c(C)nn2-c1cccc(Cl)c1`, which IC50 is on record?
Answer: 2.36 µM

Question: How did the IC50 turn out when `CN(C)c1ccc(CC(=O)c2nc3ccccc3s2)cc1` was run?
Answer: 3.19 µM

Question: `O=C(O)CCCCCN1C(=O)/C(=C\c2cn(-c3ccccc3)nc2-c2cccs2)SC1=S` was tested. Which IC50 did it give?
Answer: 2.5 µM

Question: How did the IC50 turn out when `O=C(/C=C\c1ccco1)c1ccc(NC(=O)c2ccco2)cc1` was run?
Answer: 3.3 µM

Question: For `CC(C)CCC(CCN1CCCC1)c1ccc2c(c1)OCO2` (configuration not stated), which IC50 is on record?
Answer: > 54 µM

Question: How did the IC50 turn out when `Oc1ccc(/C=N/n2cc(-c3ccccc3)[nH]c2=S)cc1` was run?
Answer: < 0.4 µM

Question: With `CCC(C)(C)n1nnnc1C(c1ccc(O)c(OC)c1)N1CCc2ccccc2C1` (configuration not stated) as the molecule, how does the IC50 read?
Answer: < 0.4 µM

Question: With `Oc1ccccc1C1Nc2cccc3cccc(c23)N1` as the molecule, how does the IC50 read?
Answer: 6.64 µM

Question: With `O=c1cc(-c2ccc(O)c(-c3c(O)cc(O)c4c(=O)cc(-c5ccc(O)cc5)oc34)c2)oc2cc(O)cc(O)c12` as the molecule, how does the IC50 read?
Answer: 1.78 µM

Question: How did the IC50 turn out when `Cc1ccc(CNC(=O)c2ccc(-n3cccc3)cc2)cc1` was run?
Answer: 2.26 µM

Question: How did the IC50 turn out when `CCN1C(=O)C(C)S/C1=N\S(=O)(=O)c1ccc(F)cc1` (configuration not stated) was run?
Answer: > 54 µM

Question: For `O/N=C1/CCCSc2ccccc21`, which IC50 is on record?
Answer: > 54 µM

Question: How did the IC50 turn out when `CS(=O)(=O)C1=NSC2=NC(=O)/C(=C\c3cccn3-c3ccccc3Cl)C(=N)N21` was run?
Answer: 5.59 µM

Question: `O=C(O)c1ccc(N2C(=O)/C(=C/c3ccc(-c4ccc([N+](=O)[O-])cc4)o3)C=C2c2ccccc2)cc1` was tested. Which IC50 did it give?
Answer: < 0.4 µM

Question: For `CCn1c(C)nc2cc(C(=O)N/N=C/c3ccc(O)c(O)c3O)ccc21`, which IC50 is on record?
Answer: < 0.4 µM

Question: For `COc1ccc2c(c1)c1ccc3c(c1n2C)C(=O)C=CC3=O`, which IC50 is on record?
Answer: < 0.4 µM

Question: For `C/C(=N\NC(=O)c1cccc(N/N=C(\C)c2ccco2)c1)c1ccco1`, which IC50 is on record?
Answer: 2.88 µM

Question: Which IC50 does the source give for `CCn1cc(C(=O)NCc2ccc3c(c2)OCO3)c2cc(OC)c(OC)cc2c1=O` here?
Answer: > 54 µM

Question: Which IC50 does the source give for `O=C1C(=Cc2cccn2-c2ccccc2)C(=O)c2ccccc21` here?
Answer: 5.19 µM

Question: With `CCNc1ccc(Br)cc(C(=O)/C=C/c2ccc(Cl)cc2)c1=O` as the molecule, how does the IC50 read?
Answer: 2.03 µM

Question: `O=C(O)c1cccc(-c2ccc(/C=c3/sc4nc5ccccc5n4c3=O)o2)c1` was tested. Which IC50 did it give?
Answer: 1.02 µM

Question: Which IC50 does the source give for `Cc1nnc(Sc2cc(NCCCO)c([N+](=O)[O-])c3nonc23)s1` here?
Answer: 1.05 µM

Question: `C=C(C)C(=O)Nc1cccc(C2=NOC3(C2)C[C@@H](C(N)=O)N(C(=O)C(=C)C)C3)c1` (some centres not stated) was tested. Which IC50 did it give?
Answer: > 54 µM
